According to patent US6025390A, “Heteroaromatic pentadienoic acid derivatives useful as inhibitors of bone resorption” (SmithKline Beecham SpA, priority 1996, dated 2000):

Tests used:
[1] = target: Bafilomycin-Sensitive ATPase in Chicken Osteoclasts; assay: Inhibition of bafilomycin-sensitive ATPase activity in purified membrane vesicles (Pi release, malachite green); type: biochemical; conditions: chicken osteoclast membranes
Procedure: Preparation of crude bone microsomes from calcium-starved egg-laying hens.
Vesicles were prepared from medullar bone obtained from tibiae and femurs of egg-laying hens which were calcium-starved for at least 15 days. Briefly, bone fragments were scraped with a 24 scalpel blade, suspended in 40 ml of isolation medium (0.2M sucrose, 50 mM KCl, 10 mM Hepes, 1 mM EGTA, 2 mM dithiotheitrol, pH 7.4) and filtered through a 100 μm pore size nylon mesh. The whole procedure was performed at 4° C. After homogenisation in a potter (20 strokes) in 40 ml of isolation medium an initial centrifugation (6,500×gmax ×20 min) was performed to remove mitochondria and lysosomes. The supernatant was centrifuged at 100,000×gmax for 1 hr and the pellet was collected in 1 ml of isolation medium, divided into 200 μl aliquots, immediately frozen in liquid nitrogen and stored at […]. The protein content was determined using a Biorad colourimetric kit according to Bradford [M. Bradford, Anal. Biochem., 72, 248 (1976)]. For the proton transport assay, 5-10 μl of membranes were used.
Purification of osteoclast membranes. 1 ml of crude microsomal vesicles prepared above were applied (about 0.2 ml per tube) on the top of a sucrose step-gradient consisting of 3.5 ml of 15%, 30% and 45% (w/w) sucrose in isolation medium and centrifuged at 280,000 gmax for 2 hours (SW 41 Ti rotor). After centrifugation the 30-45% sucrose interfaces were collected, diluted approx. 20-fold in isolation medium and pelletted at 100,000 gmax for 1 hour (SW 28 rotor). The pellet was then resuspended in 1 ml of isolation medium, aliquoted and frozen in liquid N2 and stored at -80° C. until used.
Inhibition of bafilomycin-sensitive ATPase activity was assessed in purified membrane vesicles by measuring the release of inorganic phosphate (Pi) during 30 min of incubation at 37° C. in a 96-well plate either in the presence or in the absence of bafilomycin A1. The reaction medium contained 1 mM ATP, 10 mM HEPES-Tris pH 8, 50 MM KCl, 5 uM valinomycin, 5 uM nigericin, 1 mM CDTA-Tris, 100 uM ammonium molybdate, 0.2M sucrose and membranes (20 ug protein/ml). The reaction was initiated by MgSO4 (8-arm pipette) and stopped, after 30 min, by addition of 4 volumes of the malachite green reagent (96-arm pipette) prepared according to Chan [Anal. Biochem. 157, 375 (1986)]. Absorbance at 650 nm was measured after 2 min using a microplate reader. Results are expressed as μmol (Pi)×mg protein^-1 ×hour^-1 and, for each experiment, represent the mean±sem of triplicates.

osteoclast proton pump = conditions: avian osteoclast membrane vesicles, ATP-driven acidification; cited from earlier work
osteoclast cultures = conditions: cited from earlier work

| IC50 [1] [µM] | Structure (SMILES) | inhibition of proton transport (osteoclast proton pump) | inhibition of bone resorption (osteoclast cultures) |
| --- | --- | --- | --- |
| 8.6 | CO/C(=C\C=C\c1cc2ccccc2o1)C(=O)NC1CC(C)(C)NC(C)(C)C1 [Example 3, (2Z,4E)-5-(Benzofuran-2-yl)-2-methoxy-N-((2,2,6,6-tetramethyl)-piperidin-4-yl)-2,4-pentadienamide] | – | – |
| 11 | CO/C(=C\C=C\c1cc2ccccc2o1)C(=O)NC1CC(C)(C)N(C)C(C)(C)C1 [Example 5, (2Z,4E)-5-(Benzofuran-2-yl)-2-methoxy-N[(1,2,2,6,6-pentamethyl)-piperidin-4-yl]-2,4-pentadienamide] | – | – |
| 0.5 | CO/C(=C\C=C\c1cc2cc(Cl)ccc2o1)C(=O)NC1CC(C)(C)N(C)C(C)(C)C1 [Example 8] | – | – |
| 10 | CCN(CC)CCCNC(=O)/C(=C/C=C/c1cc2cc(Cl)ccc2o1)OC [Example 9, (2Z,4E)-5-(5-Chlorobenzofuran-2-yl)-N-(3-diethylaminopropyl)-2-methoxy-2,4-pentadienamide] | – | – |
| 10.6 | CO/C(=C\C=C\c1cc2ccccc2s1)C(=O)NC1CC(C)(C)N(C)C(C)(C)C1 [Example 12, (2Z,4E)-5-(Benzothiophen-2-yl)-2-methoxy-N-[(1,2,2,6,6-pentamethyl)-piperidin-4-yl]-2,4-pentadienamide] | – | – |
| – | CCN1C(=O)C=CC1=O [N-ethylmaleimide] | inhibited | – |
| – | Cc1nc2c(OCc3ccccc3)cccn2c1CC#N [SCH 28080] | not inhibited | – |
| – | CO/C1=C\C(C)=C\[C@@H](C)[C@@H](O)[C@@H](C)C/C(C)=C/C=C/[C@H](OC)[C@@H]([C@@H](C)[C@@H](O)[C@H](C)[C@@]2(O)C[C@@H](O)[C@H](C)[C@@H](C(C)C)O2)OC1=O [bafilomycin A1] | inhibited | able to inhibit bone resorption |
| – | COc1ccc2[nH]c([S+]([O-])Cc3ncc(C)c(OC)c3C)nc2c1 (stereo not drawn) [omeprazole] | not inhibited | – |
| – | C[C@@H]1O[C@@H](O[C@H]2C[C@@H](O)[C@]3(CO)[C@H]4[C@H](O)C[C@]5(C)[C@@H](C6=CC(=O)OC6)CC[C@]5(O)[C@@H]4CC[C@]3(O)C2)[C@H](O)[C@H](O)[C@H]1O [ouabain] | not inhibited | – |
| – | [Na+].[Na+].[Na+].[O]=[V]([O-])([O-])[O-] [sodium orthovanadate] | not inhibited | – |
